Data reported in PubChem BioAssay (NCI).
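Results reflect a 48-hour exposure of cells in 96-well plates to compound at five concentrations. At the TGI there is no net growth.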

Tests used:
Test in all cases: DTP human tumour cell line panel, 48 h
[1] = tested on: COLO 205 colon
[2] = tested on: EKVX NSCLC
[3] = tested on: SK-OV-3 ovarian
[4] = tested on: NCI-H522 lung
[5] = tested on: SF-268 CNS
[6] = tested on: HT29 colon
[7] = tested on: RXF 393 renal
[8] = tested on: BT-549 breast
[9] = tested on: HCT-15 colon
[10] = tested on: NCI-H23 lung
[11] = tested on: M14 melanoma
[12] = tested on: TK-10 renal
[13] = tested on: A498 renal
[14] = tested on: HCT-116 colon
[15] = tested on: U251 CNS
[16] = tested on: SK-MEL-28 melanoma
[17] = tested on: OVCAR-8 ovarian
[18] = tested on: HS 578T breast
[19] = tested on: MDA-N
[20] = tested on: K-562 leukemia
[21] = tested on: DU-145 prostate
[22] = tested on: IGROV1 ovarian
[23] = tested on: PC-3 prostate
[24] = tested on: 786-0 renal
[25] = tested on: SNB-75 CNS
[26] = tested on: MALME-3M melanoma
[27] = tested on: UO-31 renal
[28] = tested on: LOX IMVI melanoma
[29] = tested on: SW-620 colon
[30] = tested on: NCI-H460 lung
[31] = tested on: SN12C renal
[32] = tested on: MCF7 breast
[33] = tested on: MDA-MB-435
[34] = tested on: UACC-257 melanoma
[35] = tested on: SF-295 CNS
[36] = tested on: SNB-19 CNS
[37] = tested on: HOP-92 NSCLC
[38] = tested on: T-47D breast
[39] = tested on: SK-MEL-2 melanoma
[40] = tested on: SR leukemia
[41] = tested on: NCI-H226 lung
[42] = tested on: KM12 colon
[43] = tested on: OVCAR-4 ovarian
[44] = tested on: UACC-62 melanoma
[45] = tested on: HCC-2998 colon
[46] = tested on: MDA-MB-231 breast
[47] = tested on: SF-539 CNS
[48] = tested on: HL-60(TB) leukemia
[49] = tested on: HOP-62 NSCLC
[50] = tested on: MOLT-4 leukemia
[51] = tested on: RPMI-8226 leukemia
[52] = tested on: OVCAR-3 ovarian
[53] = tested on: CAKI-1 renal
[54] = tested on: NCI/ADR-RES ovarian
[55] = tested on: ACHN renal
[56] = tested on: SK-MEL-5 melanoma
[57] = tested on: A549 NSCLC
[58] = tested on: OVCAR-5 ovarian

SMILES: COc1ccc(C(=C2C(=O)N(c3ccccc3)C(=O)C2=C(C)C)c2ccc(OC)cc2)cc1
- TGI [1]: > 33.3 µM
- TGI [2]: > 24.4 µM
- TGI [3]: > 56.1 µM
- TGI [4]: 15.7 µM
- TGI [5]: > 34.3 µM
- TGI [6]: 20.2 µM
- TGI [7]: 5.9 µM
- TGI [8]: > 39.2 µM
- TGI [9]: > 32.5 µM
- TGI [10]: > 39.4 µM
- TGI [11]: 13.5 µM
- TGI [12]: > 47.5 µM
- TGI [13]: 16 µM
- TGI [14]: > 51.1 µM
- TGI [15]: > 46.1 µM
- TGI [16]: 20.7 µM
- TGI [17]: > 32.1 µM
- TGI [18]: > 39 µM
- TGI [19]: 4.11 µM
- TGI [20]: > 100 µM
- TGI [21]: > 58 µM
- TGI [22]: > 36.6 µM
- TGI [23]: > 40.1 µM
- TGI [24]: 23.7 µM
- TGI [25]: > 43.6 µM
- TGI [26]: > 100 µM
- TGI [27]: > 31 µM
- TGI [28]: > 31.3 µM
- TGI [29]: > 100 µM
- TGI [30]: > 100 µM
- TGI [31]: > 38.2 µM
- TGI [32]: > 45.4 µM
- TGI [33]: 4.9 µM
- TGI [34]: > 47.5 µM
- TGI [35]: > 49 µM
- TGI [36]: > 56.2 µM
- TGI [37]: > 31.6 µM
- TGI [38]: > 100 µM
- TGI [39]: > 42.3 µM
- TGI [40]: > 100 µM
- TGI [41]: > 54 µM
- TGI [42]: > 54.4 µM
- TGI [43]: > 29.3 µM
- TGI [44]: > 34.2 µM
- TGI [45]: > 52 µM
- TGI [46]: > 35.4 µM
- TGI [47]: > 24.2 µM
- TGI [48]: 6.32 µM
- TGI [49]: > 66.2 µM
- TGI [50]: > 39.7 µM
- TGI [51]: > 43.7 µM
- TGI [52]: > 100 µM
- TGI [53]: 42 µM
- TGI [54]: > 100 µM
- TGI [55]: > 31.7 µM
- TGI [56]: > 51.4 µM
- TGI [57]: > 62.9 µM
- TGI [58]: > 58.6 µM
